Data from ChEMBL document CHEMBL3137667, “[Drug-induced liver injury; fourteenth updated edition of the bibliographic database of liver injuries and related drugs]” (Gastroenterol Clin Biol, 2004).

Legend:
[1] = Highest frequency of moderate liver toxicity observed during clinical trials, expressed as a percentage. [column '% BIOL' in source]; conditions: human
[2] = human
[3] = human; remark: listed apart in the source
[4] = Highest frequency of acute liver toxicity observed during clinical trials, expressed as a percentage. [column '% AIGUE' in source]; conditions: human
[5] = human; remark: listed apart in the source
[6] = human; remark: listed apart in the source
[7] = human, serum
[8] = Times to onset, minimal and maximal, observed in the indexed observations. [column 'DELAI' in source]; conditions: human
[9] = human; remark: listed apart in the source
[10] = human; remark: listed apart in the source
[11] = Presence of at least one case with successful reintroduction. [column 'REINT' in source]; conditions: human
[12] = human; remark: listed apart in the source
[13] = human, serum; remark: listed apart in the source
[14] = human; remark: listed apart in the source
[15] = human; remark: listed apart in the source
[16] = human, serum, 4383 h
[17] = Comments (NB not yet translated). [column 'COMMENTAIRES' in source]; conditions: human
[18] = Proposed mechanism(s) of liver damage. [column 'MEC' in source]; conditions: human
[19] = human; remark: listed apart in the source
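Wherever Hepatotoxicity (association with vascular disease) is given: count of indexed literature references reporting vascular liver injury in humans, e.g. peliosis hepatitis, hepatic veno-occlusive disease or Budd-Chiari syndrome.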
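Wherever Hepatotoxicity (benign tumour) is given: value is a count of indexed literature references citing a benign tumour confirmed by histopathology.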
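Wherever Hepatotoxicity (choleostasis) is given: human cholestatic liver injury, shown by histopathology or by peak ALT or AST elevation over alkaline phosphatase ratio below 2, value counts indexed literature reports.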
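Wherever Hepatotoxicity (chronic liver disease) is given: chronic liver injury confirmed by histopathology or persistently raised serum aminotransferase activity beyond 6 months, value given as the count of indexed literature references.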
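Wherever Hepatotoxicity (cirrhosis) is given: value is a count of indexed literature references reporting cirrhosis confirmed by histopathology.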
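Wherever Hepatotoxicity (cytolytic) is given: human cytolytic liver injury, shown by histopathology or by a ratio above 5 of peak ALT or AST elevation to alkaline phosphatase elevation, value counts indexed references.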
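Wherever Hepatotoxicity (granulomatous hepatitis) is given: value is a count of indexed literature references reporting granulomatous liver disease confirmed by histopathology.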
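Wherever Hepatotoxicity (malignant tumour) is given: malignant tumour confirmed by histopathology, value gives the count of indexed literature references reporting it.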
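Wherever Hepatotoxicity (severe hepatitis) is given: human clinical data: severe hepatitis, meaning potentially life-threatening liver failure or clinically observed cases, the value counts how many indexed literature references report it.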
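Wherever Hepatotoxicity (steatosis) is given: steatosis confirmed by histopathology, value is the count of indexed references.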

SMILES	Hepatotoxicity (moderate) [1]	Hepatotoxicity (granulomatous hepatitis) [2]	Hepatotoxicity (animal toxicity known) [3]	Hepatotoxicity (association with vascular disease) [5]	Hepatotoxicity (severe hepatitis) [6]	Hepatotoxicity (acute) [7]	Hepatotoxicity (time to onset) [8]	Hepatotoxicity (steatosis) [9]	Hepatotoxicity (cytolytic) [10]	Hepatotoxicity (successful reintroduction) [11]	Hepatotoxicity (benign tumour) [12]	Hepatotoxicity (moderate) [13]	Hepatotoxicity (choleostasis) [14]	Hepatotoxicity (cirrhosis) [15]	Hepatotoxicity (chronic liver disease) [16]	Hepatotoxicity (comment) [17]	Hepatotoxicity (mechanism) [18]	Hepatotoxicity (malignant tumour) [19]	Hepatotoxicity (moderate) ([1]; Liver)	Hepatotoxicity (acute) ([4]; Liver)	also measured
FC(F)OC(F)(F)C(F)Cl (stereo not given)	58%	1	yes	0	10	21	2 hours - 19 days	2	18	yes	0	15	7	0	0	RC/HALOTHANE AC_ANTI-TFA	Allergic, Reactive metabolite	0			Hepatotoxicity (acute) [4]: 0.7%
O=C(O)COc1ccc(C(=O)c2cccs2)c(Cl)c1Cl		0	yes	0		18	2 weeks - 1 year	1	18	yes	0	9	8	4	7	AC_ANTI-MFR2	Allergic, Reactive metabolite	0	7%	0%	Hepatotoxicity (severe hepatitis) ([6]; Liver): 9
CCCCc1oc2ccccc2c1C(=O)c1cc(I)c(OCCN(CC)CC)c(I)c1 [AMIODARONE]			yes	0		34	1 day - 10 years	4		yes	0	55		17	8	RC/AJMALINE #S.REYE	Allergic, Dose-dependant	0	55%	6%	Hepatotoxicity (granulomatous hepatitis) ([2]; Liver): 2; Hepatotoxicity (severe hepatitis) ([6]; Liver): 14; Hepatotoxicity (cytolytic) ([10]; Liver): 20; Hepatotoxicity (choleostasis) ([14]; Liver): 6
CN(C)CCC=C1c2ccccc2CCc2ccccc21 [AMITRIPTYLINE]	26%	0	yes	0	6	18	1 week - 10 months	0	9	yes	0	11	12	0	0	CHOLESTASE_PROLONGEE CHOLANGITE	Allergic	0			Hepatotoxicity (acute) [4]: 3%
Cn1cnc([N+](=O)[O-])c1Sc1ncnc2nc[nH]c12 [AZATHIOPRINE]			yes	27		61	2 hours - 8 years	3		yes	18	40		4	3	HNR REACTIVATION_HVB CHOLANGITE MVO PELIOSE		6	28%	11.1%	Hepatotoxicity (granulomatous hepatitis) ([2]; Liver): 2; Hepatotoxicity (severe hepatitis) ([6]; Liver): 5; Hepatotoxicity (cytolytic) ([10]; Liver): 19; Hepatotoxicity (choleostasis) ([14]; Liver): 34; Hepatotoxicity (mechanism) ([18]; Liver): Allergic, Dose-dependant
C[C@H](CS)C(=O)N1CCC[C@H]1C(=O)O [CAPTOPRIL]		0	yes	0		26	9 days - 26 months	1	7	yes	0	5	16	1	1	PSEUDOCHOLANGITE RC/ENALAPRIL/LISINOPRIL	Allergic	0	4%	0.1%	Hepatotoxicity (severe hepatitis) ([6]; Liver): 1
CN1CCN(C2=Nc3cc(Cl)ccc3Nc3ccccc32)CC1 [CLOZAPINE]	60%	0	A	0	1		3 days - 6 weeks	0	8	yes	0	26	4	0	0	CHOLANGITE	Dose-dependant	0			Hepatotoxicity (acute) [4]: 1%
COc1cccc2c1C(=O)c1c(O)c3c(c(O)c1C2=O)C[C@@](O)(C(=O)CO)C[C@@H]3O[C@H]1C[C@H](N)[C@H](O)[C@H](C)O1 [DOXORUBICIN]	84.6%	0	yes	5	4	7	1 week - 3 weeks	0	4	yes	0	8	3	0	0	I/MERCAPTOPURINE/VINBLASTINE CHOLANGITE MVO REACTIVATION_HVB	Reactive metabolite, Dose-dependant	1			
CN(C)CCCN1c2ccccc2CCc2ccccc21 [IMIPRAMINE]		0	yes	0			1 week - 1 year	0	9	yes	0		13	0	1	RC/DESPRAMINE CHOLESTASE_PROLONGEE	Allergic, Reactive metabolite	0			
O=C1CN(/N=C/c2ccc([N+](=O)[O-])o2)C(=O)N1 [NITROFURANTOIN]			yes	0			2 days - 10 years	1		yes	1	2		7	37	AC_ANTI-ML/-N RC/FURAZOLIDONE/NIFUROXIME CHOLANGITE		1	0%	0%	Hepatotoxicity (granulomatous hepatitis) ([2]; Liver): 2; Hepatotoxicity (severe hepatitis) ([6]; Liver): 8; Hepatotoxicity (cytolytic) ([10]; Liver): 9; Hepatotoxicity (choleostasis) ([14]; Liver): 27; Hepatotoxicity (mechanism) ([18]; Liver): Allergic
CNC(=C[N+](=O)[O-])NCCSCc1ccc(CN(C)C)o1 [RANITIDINE]	18.6%	1	yes	0	2		4 days - 3 months	1	12	yes	0	37	15	0	1	AC_ANTI-ML/-N CHOLANGITE	Allergic, Dose-dependant, Toxic Metabolite	0			Hepatotoxicity (acute) [4]: 0%
